The supplement of paper PMC10307832

Legend:
Test in all cases: relative viability (nuclei count vs DMSO), 5 days (fraction); higher = more cells survive
NCI-H460 = tested on: NCI-H460
Procedure, shortened: (§1)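 After 5 days of treatment, lung cancer cells in 1536-well plates were fixed and stained in a single step (final 0.05% Triton X-100, 1% formaldehyde, 1 ug/ml Hoechst) and their nuclei counted on 4× images. Treatment had been applied by pin tool the day after seeding as one drug alone or as a fixed anchor-drug dose with five library-drug doses (not always all listed) in √10 steps. Relative viability is the nuclei count of treated wells divided by that of vehicle wells, and values are medians of duplicate plates.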

NCI-H727 = tested on: NCI-H727
Procedure, shortened: as §1

NCI-H647 = tested on: NCI-H647
Procedure, shortened: as §1

NCI-H650 = tested on: NCI-H650
Procedure, shortened: as §1

EPLC-272H = tested on: EPLC-272H
Procedure, shortened: as §1

HOP-62 = tested on: HOP-62
Procedure, shortened: as §1

SW 1573 = tested on: SW 1573
Procedure, shortened: as §1

NCI-H2347 = tested on: NCI-H2347
Procedure, shortened: as §1

SW 900 = tested on: SW 900
Procedure, shortened: as §1

NCI-H2023 = tested on: NCI-H2023
Procedure, shortened: as §1

NCI-H1793 = tested on: NCI-H1793
Procedure, shortened: as §1

EMC-BAC-2 = tested on: EMC-BAC-2
Procedure, shortened: as §1

NCI-H520 = tested on: NCI-H520
Procedure, shortened: as §1

LOU-NH91 = tested on: LOU-NH91
Procedure, shortened: as §1

NCI-H441 = tested on: NCI-H441
Procedure, shortened: as §1

HCC-44 = tested on: HCC-44
Procedure, shortened: as §1

NCI-H2009 = tested on: NCI-H2009
Procedure, shortened: as §1

NCI-H2126 = tested on: NCI-H2126
Procedure, shortened: as §1

NCI-H1437 = tested on: NCI-H1437
Procedure, shortened: as §1

ChaGo-K-1 = tested on: ChaGo-K-1
Procedure, shortened: as §1

NCI-H2405 = tested on: NCI-H2405
Procedure, shortened: as §1

NCI-H2170 = tested on: NCI-H2170
Procedure, shortened: as §1

SMILES: COCC1(CO)C(=O)C2CCN1CC2 (configuration not stated) [PRIMA-1MET] + CCNC(=O)c1noc(-c2cc(C(C)C)c(O)cc2O)c1-c1ccc(CN2CCOCC2)cc1 [Luminespib] (partner 0.01 µM)
- relative viability (NCI-H460; first compound 0.2 µM): 0.0337
- relative viability (NCI-H460; first compound 0.6325 µM): 0.0272
- relative viability (NCI-H460; first compound 2 µM): 0.0258
- relative viability (NCI-H460; first compound 6.325 µM): 0.0312
- relative viability (NCI-H460; first compound 20 µM): 0.0174
- relative viability (NCI-H727; first compound 0.2 µM): 0.615
- relative viability (NCI-H727; first compound 0.6325 µM): 0.328
- relative viability (NCI-H727; first compound 2 µM): 0.236
- relative viability (NCI-H727; first compound 6.325 µM): 0.426
- relative viability (NCI-H727; first compound 20 µM): 0.213
- relative viability (NCI-H647; first compound 0.2 µM): 0.181
- relative viability (NCI-H647; first compound 0.6325 µM): 0.224
- relative viability (NCI-H647; first compound 6.325 µM): 0.219
- relative viability (NCI-H647; first compound 20 µM): 0.0932
- relative viability (NCI-H650; first compound 0.2 µM): 1.19
- relative viability (NCI-H650; first compound 2 µM): 0.666
- relative viability (NCI-H650; first compound 6.325 µM): 0.746
- relative viability (NCI-H650; first compound 20 µM): 0.373
- relative viability (EPLC-272H; first compound 2 µM): 0.277
- relative viability (EPLC-272H; first compound 6.325 µM): 0.237
- relative viability (EPLC-272H; first compound 20 µM): 0.146
- relative viability (HOP-62; first compound 0.2 µM): 0.989
- relative viability (HOP-62; first compound 0.6325 µM): 0.923
- relative viability (HOP-62; first compound 2 µM): 0.923
- relative viability (HOP-62; first compound 6.325 µM): 0.91
- relative viability (HOP-62; first compound 20 µM): 0.786
- relative viability (SW 1573; first compound 0.2 µM): 0.233
- relative viability (SW 1573; first compound 2 µM): 0.214
- relative viability (SW 1573; first compound 6.325 µM): 0.0379
- relative viability (SW 1573; first compound 20 µM): 0.0227
- relative viability (NCI-H2347; first compound 0.2 µM): 0.262
- relative viability (NCI-H2347; first compound 0.6325 µM): 0.403
- relative viability (NCI-H2347; first compound 2 µM): 0.174
- relative viability (NCI-H2347; first compound 6.325 µM): 0.386
- relative viability (NCI-H2347; first compound 20 µM): 0.349
- relative viability (SW 900; first compound 0.2 µM): 0.171
- relative viability (SW 900; first compound 0.6325 µM): 0.176
- relative viability (SW 900; first compound 2 µM): 0.162
- relative viability (SW 900; first compound 6.325 µM): 0.136
- relative viability (SW 900; first compound 20 µM): 0.091
- relative viability (NCI-H2023; first compound 0.2 µM): 0.957
- relative viability (NCI-H2023; first compound 0.6325 µM): 0.85
- relative viability (NCI-H2023; first compound 2 µM): 0.745
- relative viability (NCI-H2023; first compound 6.325 µM): 0.685
- relative viability (NCI-H2023; first compound 20 µM): 0.642
- relative viability (NCI-H1793; first compound 0.2 µM): 0.138
- relative viability (NCI-H1793; first compound 0.6325 µM): 0.177
- relative viability (NCI-H1793; first compound 6.325 µM): 0.195
- relative viability (NCI-H1793; first compound 20 µM): 0.159
- relative viability (EMC-BAC-2; first compound 0.2 µM): 1.37
- relative viability (EMC-BAC-2; first compound 0.6325 µM): 1.12
- relative viability (EMC-BAC-2; first compound 6.325 µM): 1.23
- relative viability (EMC-BAC-2; first compound 20 µM): 0.957
- relative viability (NCI-H520; first compound 0.2 µM): 0.214
- relative viability (NCI-H520; first compound 0.6325 µM): 0.215
- relative viability (NCI-H520; first compound 2 µM): 0.186
- relative viability (NCI-H520; first compound 6.325 µM): 0.2
- relative viability (NCI-H520; first compound 20 µM): 0.203
- relative viability (LOU-NH91; first compound 0.2 µM): 0.347
- relative viability (LOU-NH91; first compound 0.6325 µM): 0.353
- relative viability (LOU-NH91; first compound 2 µM): 0.365
- relative viability (LOU-NH91; first compound 6.325 µM): 0.42
- relative viability (LOU-NH91; first compound 20 µM): 0.265
- relative viability (NCI-H441; first compound 0.2 µM): 0.437
- relative viability (NCI-H441; first compound 0.6325 µM): 0.334
- relative viability (NCI-H441; first compound 2 µM): 0.276
- relative viability (NCI-H441; first compound 6.325 µM): 0.365
- relative viability (NCI-H441; first compound 20 µM): 0.277
- relative viability (HCC-44; first compound 0.2 µM): 1.36
- relative viability (HCC-44; first compound 0.6325 µM): 0.964
- relative viability (HCC-44; first compound 2 µM): 0.817
- relative viability (HCC-44; first compound 6.325 µM): 1.14
- relative viability (HCC-44; first compound 20 µM): 0.896
- relative viability (NCI-H2009; first compound 0.2 µM): 0.981
- relative viability (NCI-H2009; first compound 0.6325 µM): 0.97
- relative viability (NCI-H2009; first compound 2 µM): 1.1
- relative viability (NCI-H2009; first compound 6.325 µM): 1.04
- relative viability (NCI-H2009; first compound 20 µM): 0.307
- relative viability (NCI-H2126; first compound 0.2 µM): 0.963
- relative viability (NCI-H2126; first compound 0.6325 µM): 0.867
- relative viability (NCI-H2126; first compound 2 µM): 0.89
- relative viability (NCI-H2126; first compound 6.325 µM): 0.929
- relative viability (NCI-H2126; first compound 20 µM): 0.885
- relative viability (NCI-H1437; first compound 0.2 µM): 1.18
- relative viability (NCI-H1437; first compound 0.6325 µM): 1.08
- relative viability (NCI-H1437; first compound 2 µM): 1.09
- relative viability (NCI-H1437; first compound 6.325 µM): 1.16
- relative viability (NCI-H1437; first compound 20 µM): 1.01
- relative viability (ChaGo-K-1; first compound 0.2 µM): 0.694
- relative viability (ChaGo-K-1; first compound 0.6325 µM): 0.531
- relative viability (ChaGo-K-1; first compound 2 µM): 0.57
- relative viability (ChaGo-K-1; first compound 6.325 µM): 0.592
- relative viability (ChaGo-K-1; first compound 20 µM): 0.346
- relative viability (NCI-H2405; first compound 0.2 µM): 0.65
- relative viability (NCI-H2405; first compound 0.6325 µM): 0.598
- relative viability (NCI-H2405; first compound 6.325 µM): 0.688
- relative viability (NCI-H2405; first compound 20 µM): 0.249
- relative viability (NCI-H2170; first compound 0.2 µM): 1.06
- relative viability (NCI-H2170; first compound 0.6325 µM): 0.545
- relative viability (NCI-H2170; first compound 2 µM): 0.557
- relative viability (NCI-H2170; first compound 6.325 µM): 0.68
- relative viability (NCI-H2170; first compound 20 µM): 0.667
